Data on 24 compounds can be found in ChEMBL document CHEMBL4406812, “Synthesis of quinones with highlighted biological applications: A critical update on the strategies towards bioactive compounds with emphasis on lapachones” (Eur J Med Chem, 2019).

As a reminder, the IC50 is the midpoint of a concentration-inhibition curve.

The test system of test [1] is LNCaP. Kind of test: Anticancer activity against human LNCAP cells after 72 to 102 hrs by MTT assay. The test is classed as functional, cell-based.
The subject of test [2] is KB. Kind of test: Cytotoxicity against human KB cells assessed as reduction in cell viability after 48 hrs by MTT assay. It is filed as functional, cell-based.
The test system of test [3] is HeLa. Kind of test: Cytotoxicity against human HeLa cells assessed as reduction in cell viability after 48 hrs by MTT assay. It is filed as functional, cell-based. In general terms: Tetrazolium assays rely on reduction of a dye to a coloured formazan, in cell work by metabolically active cells.
Test [4] concerns HepG2. Kind of test: Cytotoxicity against human HepG2 cells assessed as reduction in cell viability after 48 hrs by MTT assay. It is filed as functional, cell-based. Particulars: HepG2, 48 h.
The subject of test [5] is Vero. Kind of test: Cytotoxicity against African green monkey Vero cells assessed as reduction in cell viability after 48 hrs by MTT assay. It is filed as cell-based. The following applies: Chlorocebus sabaeus.
In test [6] the test system is MDA-MB-435. Kind of test: Anticancer activity against human MDA-MB-435 cells. The test is classed as functional, cell-based.
For test [7], the system named is HL-60. Kind of test: Anticancer activity against human HL60 cells. The test is classed as functional, cell-based.
Test [8] deals with HCT-8. Kind of test: Anticancer activity against human HCT8 cells. It is filed as functional, cell-based.
Test [9] concerns SF-295. Kind of test: Anticancer activity against human SF295 cells. It is filed as functional, cell-based.
The subject of test [10] is PBMC. Kind of test: Cytotoxicity against human PBMC. The test is classed as cell-based.
Test [11] has as its system Trypanosoma cruzi. Kind of test: Anti-parasitic activity against Trypanosoma cruzi. It is filed as functional, organism-based.
For test [12], the system named is Trypanosoma cruzi. Kind of test: Trypanocidal activity against Trypanosoma cruzi Y strain bloodstream trypomastigotes isolated from infected Swiss mouse after 24 hrs by Neubauer chamber method. The test is classed as functional, organism-based.
Test [13] concerns L02. Kind of test: Cytotoxicity against human LO2 cells assessed as reduction in cell viability after 48 hrs by MTT assay. The following applies: L02, 48 h. The test is classed as functional, cell-based.
For test [14], the system named is Trypanosoma cruzi. Kind of test: Anti-parasitic activity against trypomastigotes form of Trypanosoma cruzi after 24 hrs. It is filed as functional, organism-based.
Test [15] has as its system Trypanosoma cruzi. Kind of test: Trypanocidal activity against Trypanosoma cruzi Y strain bloodstream trypomastigotes after 24 hrs. It is filed as functional, organism-based.
Test [16] relates to HL-60. Kind of test: Anticancer activity against human HL60 cells by MTT assay. The test is classed as functional, cell-based.
The test system of test [17] is HCT-116. Kind of test: Anticancer activity against human HCT116 cells by MTT assay. The test is classed as functional, cell-based.
In test [18] the test system is SF-295. Kind of test: Anticancer activity against human SF295 cells by MTT assay. The test is classed as functional, cell-based.
In test [19] the test system is OVCAR-8. Kind of test: Anticancer activity against human OVCAR8 cells by MTT assay. It is filed as functional, cell-based.
For test [20], the system named is HCT-116. Kind of test: Anticancer activity against human HCT116 cells. The test is classed as functional, cell-based.
The test system of test [21] is L929. Kind of test: Anticancer activity against mouse L929 cells. It is filed as functional, cell-based.
Test [22] has as its system HL-60. Kind of test: Cytotoxicity against human HL60 cells assessed as reduction in cell viability after 22 hrs by MTS assay. The test is classed as functional, cell-based. Particulars: HL-60, 22 h.
In test [23] the test system is MCF7. Kind of test: Anticancer activity against human MCF7 cells. It is filed as functional, cell-based.

Take `O=C1C(=O)c2ccccc2C2=C1CCCO2`: the concentration for half-maximal inhibition (IC50) was determined as 2760 nM in test [1]; 3200 nM in test [2]; 900 nM in test [3]; 900 nM in [4]; 1000 nM in test [5].

`COc1ccc(/N=C2\C(=O)C3=C(OC(C)(C)CC3)c3ccccc32)cc1`: in test [6], 10 nM corresponded to half-maximal inhibition (IC50).

As to `CC1(C)CC(Nc2ccc(Cl)cc2)C2=C(O1)C(=O)c1ccccc1C2=O` (centres undefined), the IC50 in [7], in test [8], in test [9], in [6] and in [10] was 70 to 370 nM each time.

Compound `COc1ccc(NC2CC(C)(C)OC3=C2C(=O)c2ccccc2C3=O)cc1` (centres undefined) registered a concentration for half-maximal inhibition (IC50) in [7] of 70 nM.

With `Nc1c(I)ccc2c1C(=O)C=CC2=O`, the midpoint of inhibition in test [11], the IC50, lay at 600 nM.

As to `Cc1cc(I)c2c(c1)C(=O)C=CC2=O`, in test [11], the IC50 came out at 500 nM.

The compound `CCOC(=O)/C=C/c1cccc2c1C(=O)C=CC2=O` gave a half-maximal inhibitory concentration (IC50) in test [12] of 63400 nM.

With `O=C1C(Br)=C(Br)C(=O)c2c(I)cccc21`, the half-maximal inhibitory concentration (IC50) in test [11] came to 1400 nM.

Regarding `O=C1C(=O)c2ccccc2C2=C1C1(C(=O)Nc3ccc(Br)cc31)N1NN=NC1=N2` (centres undefined), the IC50 in [4] and in test [13] was 2900 to 36300 nM in each case.

In test [14], `COc1ccc(Sc2cccc3c2C(=O)C=CC3=O)cc1` returned a half-inhibitory concentration (IC50) of 7600 nM.

With `O=C1C(=O)c2ccccc2C2=C1C1(C(=O)Nc3ccc(OC(F)(F)F)cc31)N1NN=NC1=N2` (centres undefined), the IC50 in test [4] and in [13] was 2900 to 36300 nM throughout.

Regarding `COc1ccc(I)c2c1C(=O)C=C(C)C2=O`, half-maximal inhibition in [15] (IC50) was put at 7570 nM.

As to `CN1C(=O)C2(C3=C(N=C4N=NNN42)c2ccccc2C(=O)C3=O)c2cccc(F)c21` (centres undefined), the IC50 in test [4] and in [13] was 2900 to 36300 nM in each case.

On to `O=C1C=CC(=O)c2c(Sc3ccccc3)cccc21`, for which, in test [14], half-maximal inhibition (IC50) required 12400 nM.

`CC1(C)O[C@@H]2O[C@@H](COC3C4=C(OC3(C)C)c3ccccc3C(=O)C4=O)[C@H]3OC(C)(C)O[C@H]3[C@@H]2O1` (some centres undefined): the IC50 in test [16] stood at 230 nM; in [17], 350 nM; in test [18], 230 nM; in [19], 700 nM.

For `O=C1C(=O)c2ccccc2C2=C1C1(C(=O)Nc3ccccc31)N1NN=NC1=N2` (centres undefined), the half-maximal inhibitory concentration (IC50) in [4] and in test [13] was 2900 to 36300 nM throughout.

For `O=C1C(=O)c2ccccc2C2=C1C1(C(=O)Nc3ccc(F)cc31)N1NN=NC1=N2` (centres undefined), the 50% inhibitory concentration (IC50) in [4] and in test [13] was 2900 to 36300 nM throughout.

On to `CC1(C)OC2=C(C(=O)C(=O)c3ccccc32)[C@H](n2cc(C[Se]c3ccc(F)cc3)nn2)[C@H]1Br`, for which the IC50 in test [7] amounted to 590 nM; in test [20] it was 370 nM; in test [21], 360 nM.

For the compound `O=C1C(=O)c2ccccc2C2=C1C1(C(=O)Nc3c(Br)cccc31)N1NN=NC1=N2` (centres undefined), the half-maximal inhibitory concentration (IC50) in [4] and in test [13] was 2900 to 36300 nM throughout.

As for `O=C1C=CC(=O)c2c(Sc3ccc(Br)cc3)cccc21`, in test [14], 6600 nM corresponded to half-maximal inhibition (IC50).

As to `O=C1C2=C(S[C@@H]3OC[C@@H](O)[C@H](O)[C@H]3O2)C(=O)c2ccccc21`, the concentration for half-maximal inhibition (IC50) in test [22] was 1000 nM.

For `Cc1ccc2c(c1)C1(C(=O)N2)C2=C(N=C3N=NNN31)c1ccccc1C(=O)C2=O` (centres undefined), the IC50 in test [4] and in test [13] was 2900 to 36300 nM in each case.

`CC(=O)OCC1C2=C(OC1(C)C)c1ccccc1C(=O)C2=O` (centres undefined) showed an IC50 in test [23] of 600 nM.

`O=C1C=CC(=O)c2c(SCc3ccccc3)cccc21` gave a 50% inhibitory concentration (IC50) in test [14] of 14300 nM.
